# Measurements reported in ChEMBL document CHEMBL5055668 (J Med Chem, 2021).
# The source made the active and inactive calls. The calls are words filed in the database; no cut-off is given here.
# Biological target: T1, Macrophage colony-stimulating factor 1 receptor (Mus musculus) (UniProt P09581)
# T1 sequence (whole entry): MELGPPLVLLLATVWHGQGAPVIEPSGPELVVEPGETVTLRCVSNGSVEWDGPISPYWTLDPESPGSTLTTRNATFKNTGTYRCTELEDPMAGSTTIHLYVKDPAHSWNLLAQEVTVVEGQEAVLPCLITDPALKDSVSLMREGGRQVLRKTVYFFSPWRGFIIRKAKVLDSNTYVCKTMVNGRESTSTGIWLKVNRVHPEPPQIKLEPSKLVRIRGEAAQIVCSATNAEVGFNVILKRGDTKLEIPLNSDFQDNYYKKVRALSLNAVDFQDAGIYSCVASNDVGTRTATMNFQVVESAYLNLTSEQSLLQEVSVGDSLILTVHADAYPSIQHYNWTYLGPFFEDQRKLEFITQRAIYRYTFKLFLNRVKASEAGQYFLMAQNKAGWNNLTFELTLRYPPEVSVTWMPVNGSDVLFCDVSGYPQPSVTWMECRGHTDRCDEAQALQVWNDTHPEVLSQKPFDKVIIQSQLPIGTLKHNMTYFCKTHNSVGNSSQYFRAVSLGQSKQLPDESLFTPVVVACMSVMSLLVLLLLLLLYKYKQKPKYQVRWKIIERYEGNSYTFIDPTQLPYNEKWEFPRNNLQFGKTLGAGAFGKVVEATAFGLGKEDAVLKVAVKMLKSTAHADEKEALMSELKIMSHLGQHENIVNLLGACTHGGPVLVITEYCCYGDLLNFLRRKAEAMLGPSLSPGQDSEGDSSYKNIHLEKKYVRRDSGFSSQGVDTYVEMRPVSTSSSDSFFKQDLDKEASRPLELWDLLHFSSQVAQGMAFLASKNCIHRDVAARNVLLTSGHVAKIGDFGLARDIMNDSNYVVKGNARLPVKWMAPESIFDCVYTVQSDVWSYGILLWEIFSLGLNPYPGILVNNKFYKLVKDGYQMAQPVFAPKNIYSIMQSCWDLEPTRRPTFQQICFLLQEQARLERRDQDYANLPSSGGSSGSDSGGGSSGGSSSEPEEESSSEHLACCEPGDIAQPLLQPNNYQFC
# Assay: Inhibition of CSF-1R signaling pathway in C57BL/6 mouse BMDM cells assessed as reduction in M-CSF induced CSF-1R phosphorylation at 100 nM preincubated for 12 hrs followed by M-CSF stimulation for 30 mins by Western blot analysis
# Format: cell-based
# Conditions: not given
row,inhibition,Structure (SMILES)
1,Active,Cc1[nH]c(/C=C2\C(=O)Nc3cc(NC(=O)Nc4cc(C(C)(C)C)on4)ccc32)c(C)c1NC(=O)CCN1CCCC1
2,Active,Cc1[nH]c(/C=C2\C(=O)Nc3cc(NC(=O)Nc4cc(C(C)(C)C)on4)ccc32)c(C)c1NC(=O)C1CCCCN1 (configuration not stated)
3,Active,Cc1[nH]c(/C=C2\C(=O)Nc3cc(NC(=O)Nc4cc(C(C)(C)C)on4)ccc32)c(C)c1NC(=O)C1CCCNC1 (configuration not stated)
4,Active,Cc1[nH]c(/C=C2\C(=O)Nc3cc(NC(=O)Nc4cc(C(C)(C)C)on4)ccc32)c(C)c1NC(=O)[C@@H]1CCNC1

# Further lines, the molecule ahead of its results:
row,Structure (SMILES),inhibition
1,Cc1[nH]c(/C=C2\C(=O)Nc3cc(NC(=O)Nc4cc(C(C)(C)C)on4)ccc32)c(C)c1NC(=O)CCN1CCN(C)CC1,Active
2,CCNCCC(=O)Nc1c(C)[nH]c(/C=C2\C(=O)Nc3cc(NC(=O)Nc4cc(C(C)(C)C)on4)ccc32)c1C,Active
3,Cc1[nH]c(/C=C2\C(=O)Nc3cc(NC(=O)Nc4cc(C(C)(C)C)on4)ccc32)c(C)c1NC(=O)CCN1CCCCC1,Active
4,CCCNCCC(=O)Nc1c(C)[nH]c(/C=C2\C(=O)Nc3cc(NC(=O)Nc4cc(C(C)(C)C)on4)ccc32)c1C,Active
5,FC(F)(F)c1ccc(CNc2ccc(Cc3c[nH]c4ncc(Cl)cc34)cn2)cn1 [PEXIDARTINIB],Active
6,Cc1[nH]c(/C=C2\C(=O)Nc3cc(NC(=O)Nc4cc(C(C)(C)C)on4)ccc32)c(C)c1NC(=O)CCN(C)C,Active

# System: MC-38
# Assay: Antitumor activity against mouse MC38 cells allografted in C57BL6 mouse assessed as tumor growth inhibition at 20 mg/kg, po administered daily for 2 weeks by caliper method
# Conditions: MC-38, po, 336 h, read-out: TGI
row,Structure (SMILES),inhibition in vivo at 20 mg/kg
1,FC(F)(F)c1ccc(CNc2ccc(Cc3c[nH]c4ncc(Cl)cc34)cn2)cn1 [PEXIDARTINIB],40.3%

# Biological target: Macrophage colony-stimulating factor 1 receptor (Homo sapiens, UniProt P07333)
# Conditions: not given
# Macrophage colony-stimulating factor 1 receptor, sequence (P07333 whole entry): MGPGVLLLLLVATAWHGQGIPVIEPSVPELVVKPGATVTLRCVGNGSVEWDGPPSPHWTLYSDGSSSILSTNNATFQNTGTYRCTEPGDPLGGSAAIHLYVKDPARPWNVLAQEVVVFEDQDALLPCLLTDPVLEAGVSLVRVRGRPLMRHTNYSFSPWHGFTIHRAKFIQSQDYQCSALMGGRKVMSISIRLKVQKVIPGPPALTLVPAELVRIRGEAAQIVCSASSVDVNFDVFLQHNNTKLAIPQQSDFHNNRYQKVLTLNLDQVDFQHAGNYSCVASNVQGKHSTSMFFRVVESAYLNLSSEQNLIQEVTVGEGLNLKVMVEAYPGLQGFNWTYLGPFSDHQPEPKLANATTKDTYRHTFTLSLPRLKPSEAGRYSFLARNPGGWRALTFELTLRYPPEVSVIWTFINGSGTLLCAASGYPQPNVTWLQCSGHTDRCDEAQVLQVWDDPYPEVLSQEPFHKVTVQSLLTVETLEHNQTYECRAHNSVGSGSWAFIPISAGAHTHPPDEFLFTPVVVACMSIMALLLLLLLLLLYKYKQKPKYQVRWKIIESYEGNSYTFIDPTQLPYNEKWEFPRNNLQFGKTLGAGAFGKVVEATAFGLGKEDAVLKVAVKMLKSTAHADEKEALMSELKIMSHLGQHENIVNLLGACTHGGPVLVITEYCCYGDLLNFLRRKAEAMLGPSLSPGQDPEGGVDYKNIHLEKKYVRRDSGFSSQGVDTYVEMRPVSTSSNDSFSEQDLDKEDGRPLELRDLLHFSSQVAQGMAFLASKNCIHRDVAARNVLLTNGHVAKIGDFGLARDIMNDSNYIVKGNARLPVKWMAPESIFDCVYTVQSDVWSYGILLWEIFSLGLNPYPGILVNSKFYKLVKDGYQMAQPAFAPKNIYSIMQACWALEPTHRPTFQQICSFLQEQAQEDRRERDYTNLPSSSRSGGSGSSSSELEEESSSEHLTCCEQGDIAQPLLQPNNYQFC
row,IC50,Structure (SMILES)
1,> 3 µM,CCN(CC)CCNC(=O)c1c(C)[nH]c(/C=C2\C(=O)Nc3cc(NC(=O)NC4CCN(C)CC4)ccc32)c1C
